ChEMBL document CHEMBL1799972, “Grandilodines A-C, biologically active indole alkaloids from Kopsia grandifolia” (J Nat Prod, 2011)

How the values were obtained:
KB/VJ300 = experiment: Reversal of multidrug-resistance in vincristine-resistant human KB/VJ300 cells in presence of 0.1 ug/ml vincristine; format: functional, cell-based
KB = experiment: Cytotoxicity against vincristine-sensitive human KB cells in presence of 0.1 ug/ml vincristine; format: cell-based
[1] = Cytotoxicity in vincristine-resistant human KB/VJ300 cells in presence of 0.1 ug/ml vincristine; format: cell-based

IC50 (KB/VJ300) [µg/mL] | SMILES | IC50 (KB) [µg/mL] | IC50 [1] [µg/mL]
4.35 | COC(=O)[C@@H]1C[C@]23CCCN2CC[C@]2(C(=O)OC)c4ccccc4N(C(=O)OC)[C@]12CC3 [GRANDILODINE A] |  | 
4.11 | COC(=O)N1c2ccccc2[C@]23CCN4C(=O)C=C[C@]45CC[C@]12[C@@H](C5)C(=O)O3 [GRANDILODINE C] |  | 
0.39 | COC(=O)N1c2ccccc2[C@]23CCN4CC=C[C@]45CC[C@]12[C@@H](C5)C(=O)O3 [LAPIDILECTINE B] |  | 
 | CC[C@]1(O)C[C@H]2CN(CCc3c([nH]c4ccccc34)[C@@](C(=O)OC)(c3cc4c(cc3OC)N(C=O)[C@H]3[C@@](O)(C(=O)OC)[C@H](OC(C)=O)[C@]5(CC)C=CCN6CC[C@]43[C@@H]65)C2)C1 [VINCRISTINE] | > 25 | > 25
